Legend:
[1] = test system: CD3-/CD19+ LCL and immune effector subsets; assay: Non-irradiated LCL / autologous PBMC co-cultures, flow cytometry; type: cell-based, human
Description: Lymphoblastoid cell lines (LCL) were derived in vivo by engrafting severe combined immune-deficient (SCID) mice (Taconic, Hudson N.Y.) with human peripheral blood mononuclear cells (PBMC) from a healthy EBV-positive donor as described (Rowe 1991; Baiocchi 1994). Co-cultures (Cocx) were created by mixing 5×10^4 LCL (either non-irradiated or irradiated with 14000 rad) per well with equal numbers of autologous PBMC in 96-well plates. Cultures were grown in the presence of 10 U/mL IL-2 and were given a single dose of silvestrol and cultured for 10-14 days.
Cells from irradiated or non-irradiated co-cultures were co-stained with LIVE/DEAD cell stain (Invitrogen, Grand Island, N.Y.) and hu-CD3-APC and either hu-CD4-PE, hu-CD-8-PE, hu-CD19-PE (BD Biosciences, San Diego, Calif.), or hu-CD56-PE (Beckman Coulter, Brea, Calif.). Live events were gathered by gating on cells negative for the LIVE/DEAD stain on an FC500 cytometer (Beckman Coulter). Cell viability was also measured by flow cytometry at 24, 72, and 120 hr using annexin-V-FITC and propidium iodide (PI) according to the manufacturer's instructions (BD Biosciences).
It was next examined how viable, non-irradiated LCL interacted with immune effectors in the presence of silvestrol, a situation closer to conditions that occur in vivo. CoCx were incubated in the presence of 10 U/mL IL-2. Specifically, LCL from three separate donors were incubated at a ratio of 1:1 with their respective autologous PBMCs for 10 days after adding a single dose of 0, 2, 5, or 10 nM silvestrol. On day 10, flow cytometric analysis was conducted. Live events were gathered by gating on cells negative for the LIVE/DEAD stain. Data are expressed as percentage of total viable population for (A) CD3^−/CD19^+ LCLs; (B) CD3^+/C4^+ helper T cells; (C) CD3^+/CD8^+ CTLs; or (D) CD3^−/CD56^+ NK cells. Left untreated, the transformed LCL (CD3^−/CD19^+) cells proliferated and matched the expansion of effectors lymphocyte subsets, approximately maintaining the 1:1 ratio (FIGS. 34A and 34E). […] Similarly, CD4^+ T cell percentages were reduced with increasing silvestrol concentrations (FIG. 34B). In contrast, CD8+ T cells and CD56^+ NK cell populations expanded in the presence of silvestrol, both as percent of population and absolute numbers (FIGS. 34C-34D).

EBV-LPD = assay: hu-PBL-SCID model of EBV-LPD; type: in vivo, SCID mice
Description: Six week-old female SCID mice (n=28) received anti-asialo antisera prior to engraftment to deplete murine NK cells. Mice were engrafted intraperitoneally with 5×10^7 peripheral blood mononuclear cells (PBMCs) obtained from EBV-positive, healthy donor. Untreated mice in this model develop lethal disseminated (human) lymphoma; median survival varies by PBMC donor for that experiment. Two weeks post-engraftment, treatments were initiated with either vehicle (30% HBPCD) or vehicle+silvestrol (1.5 mg/kg every 48 hrs; n=14 each). 4 and 8 weeks post-engraftment, 2 mice from each group were sacrificed for examination and blood was drawn from all mice to assess human IgG levels (FIG. 23). The remainder of mice (n=10 each) were followed for survival. Survival is defined as absence of IACUC-approved euthanasia criteria (in this model, typically this is weight loss >20%, together with labored breathing and cessation of grooming).
The Hu-PBL-SCID mouse model has been described (Mosier 1992). Human PBMCs were obtained from a healthy EBV seropositive donor. 5×10^7 cells were injected intraperitoneally (IP) into 6 week-old female SCID mice (Taconic) that were NK cell-depleted by pretreatment with anti-asialo (GM1) (Wako Pure Chemical Industries, Richmond, Va.). Engraftment was confirmed by hu-IgG ELISA from serum as described (Baiocchi 1994). Silvestrol treatment began two weeks post-engraftment.
The hu-PBL SCID model has been used to study the effect of compounds on spontaneously derived EBV-driven lymphomas (Fuzzati-Armentero 1998). PBMC from a healthy EBV-positive donor were injected into a group of SCID mice that had been pretreated with anti-asialo (GM1) to deplete murine NK cells. Mice were randomized (n=14/group) and treatment with 1.5 mg/kg silvestrol or vehicle control every 48 hr began two weeks after engraftment. Two weeks after treatment began (four weeks post-engraftment), an ELISA was performed to evaluate human IgG. […] At 4 and 8 weeks post-engraftment, flow cytometry analysis was performed on spleen cells from two mice in each group. […] Spleens were also obtained from mice as the disease progressed and euthanasia criteria were met. […] During the 140-day experiment, the health of the mice was tracked by body weight. Weights of all mice were checked twice weekly.

[2] = test system: STAT1, STAT3, AKT and NF-κB p65; assay: Immunoblot of LMP-1 downstream pathways in LCL; type: cell-based, human
Description: Cells were harvested and lysed as described (Alinari 2011). Following collection of whole cell lysates, equal amounts of protein were resolved by SDS-PAGE and transferred onto a PVDF membrane (Millipore, Billerica, Mass.). Membrane was probed overnight at 4° C. with β-actin, pSTAT1, pSTAT3, STAT1, STAT3, pAkt, Akt (Cell Signaling Technology, Danvers, Mass.), or LMP-1 (DakoCytomation, Carpinteria, Calif.). After incubation with HRP-conjugated secondary antibody (Cell Signaling Technology), protein was detected with SuperSignal West Pico Chemiluminescent Substrate (Pierce, Rockford, Ill.).
Through its cytoplasmic C-terminal-activating region 1 (CTAR1), LMP-1 constitutively activates multiple pro-survival signaling pathways including NF-κB, PI3K/AKT, and STATs 1 and 3 (Shair 2007; Gires 1999; Dawson 2003; Kung 2008; Kung 2011) similar to an external growth stimulus. Thus, LMP-1 directly and indirectly promotes tumor cell growth and survival through diverse mechanisms. To investigate the effects of silvestrol on these pathways, LCLs were incubated for 24, 72, and 120 hr with vehicle or 10 nM silvestrol, and cell extracts were analyzed by immunoblot. […] Using the same treatment conditions, a decrease in the levels of both total Akt and its activated, phosphorylated form was observed. […] Total levels of NF-κB proteins such as p50, p105, and IKBa were unchanged (left panel), as were Bcl2 family proteins such as Bcl2, Mel1, and Bax (right panel) (FIG. 36).

[3] = single dose 2, 5, 10 nM, day 10, non-irradiated LCL
[4] = 1.5 mg/kg every 48 hr, 140-day experiment

## COC(=O)[C@H]1[C@@H](O)[C@@]2(O)c3c(OC)cc(O[C@@H]4O[C@@H]([C@H](O)CO)CO[C@H]4OC)cc3O[C@@]2(c2ccc(OC)cc2)[C@@H]1c1ccccc1 [silvestrol]
[1]; 2, 5, 10 nM, 14 days of culture (FIG. 16)
  CD19+ B cells in non-irradiated co-cultures: dose dependent loss
[1]; [3]
  CD4+ T cell percentages: reduced
  CD8+ T cell population (percent and absolute numbers): expanded
  CD56+ NK cell population (percent and absolute numbers): expanded
  viable EBV-LCL (CD3-/CD19+): dose-dependent ablation
EBV-LPD; 1.5 mg/kg every 48 hr
  signs of disease at the end of the study (flow cytometry of spleen cells): no signs of disease
EBV-LPD; 1.5 mg/kg every 48 hr (FIG. 23)
  engraftment of human PBMCs (human immunoglobulin production): did not affect engraftment
EBV-LPD; 1.5 mg/kg every 48 hr, 4 and 8 weeks post-engraftment
  EBV-LPD infiltration of the spleen (flow cytometry): no tumor burden
EBV-LPD; [4]
  body weight compared to vehicle-treated mice: gain weight at a faster pace
  ill effects from long-term treatment: did not show observable ill effects
EBV-LPD; 1.5 mg/kg every 48 hr, after completion of the experiment at day 140
  mean spleen weight: 72.9 mg
EBV-LPD; 1.5 mg/kg every 48 hr, four weeks post-engraftment
  production of human IgG by xenografted B-lymphocytes: did not affect
EBV-LPD; 1.5 mg/kg every 48 hr, p<0.001 vs. vehicle
  mice alive at day 140 (overall survival): 7/7
[2]; 10 nM, 24, 72, 120 hr
  phosphorylated (activated) STAT1 level: decreased
  phosphorylated (activated) STAT3 level: decreased
  phosphorylated Akt level: a decrease
  total Akt level: a decrease
  total STAT1 level: remained unchanged
  total STAT3 level: remained unchanged
  total p65 levels: relatively unchanged
[2]; FIG. 36 left panel
  total levels of NF-κB proteins p50, p105, IKBa: unchanged
[2]; FIG. 36 right panel
  Bcl2 family proteins Bcl2, Mcl1, Bax: unchanged

From patent US20140255432A1, “SILVESTROL, SILVESTROL ANALOGS AND USES THEREOF” (priority 2011, published 2014)
